{
  "source": "patent US4386093A",
  "about": "(The United States of America as represented by the …, priority 1981, dated 1983)",
  "key": {"poliovirus": {"system": "poliovirus", "format": "cell-based"}, "[1]": {"target": "S-adenosylhomocysteine hydrolase"}, "[2]": {"system": "calf intestinal deaminase", "assay": "Deamination by calf intestinal deaminase", "format": "biochemical"}, "[3]": {"assay": "Cell number in herpes I plaque assay", "format": "cell-based", "conditions": "mouse L cells"}, "vaccinia virus": {"system": "vaccinia virus", "assay": "microbe, parasite or virus in culture", "format": "cell-based"}, "HL-23 C type virus [4]": {"system": "HL-23 C type virus", "assay": "HL-23 virus production in NRKB/HL23 cells", "format": "cell-based", "conditions": "HL2/3, 72 h", "description": "on day 3; virus production by HL23 was measured with NRKB/HL23 cells on\nday 3; oncogenic transformation by HL23 was assayed by infecting normal"}, "[5]": {"system": "neutrophilis or macrophage cell lines"}, "HL-23 C type virus [6]": {"system": "HL-23 C type virus", "assay": "HL-23 foci formation (oncogenic transformation) in normal rat kidney cells", "format": "cell-based", "conditions": "NRK 153 Cl 7 cells, day 5"}, "adenosine kinase": {"system": "adenosine kinase", "assay": "Phosphorylation by adenosine kinase", "format": "biochemical"}, "in vitro": {"assay": "in vitro", "conditions": "vaccinia assay host cells"}, "herpes simplex type I": {"system": "herpes simplex type I", "assay": "Herpes I plaque formation in mouse L cells", "format": "cell-based", "conditions": "72 h, day 3"}, "[7]": {"conditions": "1 μM; vaccinia assay"}, "[8]": {"assay": "Cell number in HL-23 virus production assay", "format": "cell-based", "conditions": "rat, nrkb/hl23 cells, read-out: % Control Cell Number"}, "[9]": {"assay": "Cell number in HL-23 foci formation assay", "format": "cell-based", "conditions": "rat, nrk 153 cl 7 cells, read-out: % Control Cell Number"}, "[10]": {"conditions": "read-out: Ki, S-adenosylhomocysteine hydrolase"}, "[11]": {"conditions": "listed as (±)3-Deazaaristeromycin"}},
  "note": "Like-named read-outs stand apart in the source and are kept apart here.",
  "data": [
    {"smiles": "Nc1nccc2c1ncn2[C@@H]1O[C@H](CO)[C@@H](O)[C@H]1O", "note": "[3-deazaadenosine, reference compound]", "values": [
      {"measurement": "Inhibition of replication of poliovirus", "setting": "poliovirus", "result": "fail to inhibit"}
    ]},
    {"smiles": "Nc1ncnc2c1ncn2[C@@H]1C[C@H](CO)[C@@H](O)[C@H]1O", "note": "(relative stereo) [(±)aristeromycin, reference compound]", "values": [
      {"measurement": "Ki", "setting": "[1]; [10]", "result": 1, "unit": "nM"}
    ]},
    {"smiles": "Nc1nccc2c1ncn2[C@@H]1C[C@H](CO)[C@@H](O)[C@H]1O", "note": "(relative stereo) [(±)3-deazaaristeromycin, (±)-4-amino-1-[(1α, 2β, 3β, 4α)-2,3-dihydroxy-4-(hydroxymethyl)-cyclopentyl]imidazo[4,5-c]pyridine]", "values": [
      {"measurement": "Deamination", "setting": "[2]; listed as 3-Deaza-Ari", "result": "not deaminated"},
      {"measurement": "Deamination", "setting": "[2]; [11]", "result": "not subject to deamination or phosphorylation"},
      {"measurement": "activity at 72 h, 10 µM", "setting": "[3]; 10 uM, read-out: % Control Cell Number", "result": 100, "unit": "%"},
      {"measurement": "activity at 72 h, 20 µM", "setting": "[3]; 20 uM, read-out: % Control Cell Number", "result": 95, "unit": "%"},
      {"measurement": "activity at 72 h, 30 µM", "setting": "[3]; 30 uM, read-out: % Control Cell Number", "result": 95, "unit": "%"},
      {"measurement": "activity at 72 h, 40 µM", "setting": "[3]; 40 uM, read-out: % Control Cell Number", "result": 91, "unit": "%"},
      {"measurement": "activity at 72 h, 50 µM", "setting": "[3]; 50 uM, read-out: % Control Cell Number", "result": 95, "unit": "%"},
      {"measurement": "activity at 72 h, 60 µM", "setting": "[3]; 60 uM, read-out: % Control Cell Number", "result": 91, "unit": "%"},
      {"measurement": "activity at 72 h, 70 µM", "setting": "[3]; 70 uM, read-out: % Control Cell Number", "result": 82, "unit": "%"},
      {"measurement": "cytotoxicity", "setting": "[3]; 20-30 μM, read-out: Reduction in the cell number (cytotoxicity)", "result": "≤ 5", "unit": "%"},
      {"measurement": "% Inhibition, Vaccinia plaque formation", "setting": "vaccinia virus; 1.0 uM", "result": 99.2, "unit": "%"},
      {"measurement": "inhibition at 0.5 µM", "setting": "vaccinia virus; Orthopoxvirus vaccinia, read-out: % Inhibition, Vaccinia plaque formation, 0.5 uM", "result": 84, "unit": "%"},
      {"measurement": "inhibition at 1 µM", "setting": "vaccinia virus; Orthopoxvirus vaccinia, read-out: % Inhibition, Vaccinia plaque formation, 1.0 uM", "result": "> 99", "unit": "%"},
      {"measurement": "inhibition at 2 µM", "setting": "vaccinia virus; Orthopoxvirus vaccinia, read-out: % Inhibition, Vaccinia plaque formation, 2.0 uM", "result": 99.6, "unit": "%"},
      {"measurement": "inhibition at 4 µM", "setting": "vaccinia virus; Orthopoxvirus vaccinia, read-out: % Inhibition, Vaccinia plaque formation, 4.0 uM", "result": 99.8, "unit": "%"},
      {"measurement": "inhibition at 0.25 µM", "setting": "HL-23 C type virus [4]; 0.25 uM, day 3", "result": 68, "unit": "%"},
      {"measurement": "inhibition at 1 µM", "setting": "HL-23 C type virus [4]; 1.00 uM, day 3", "result": 86, "unit": "%"},
      {"measurement": "inhibition at 0.5 µM", "setting": "HL-23 C type virus [4]; read-out: % Inhibition, HL-23 virus production, 0.50 uM, day 3", "result": "> 85", "unit": "%"},
      {"measurement": "Inhibition of chemotaxis", "setting": "[5]", "result": "does not inhibit"},
      {"measurement": "% Inhibition, HL-23 foci formation", "setting": "HL-23 C type virus [6]; 2.00 uM, 2 µM", "result": 92, "unit": "%"},
      {"measurement": "inhibition at 0.25 µM", "setting": "HL-23 C type virus [6]; HL2/3, 120 h, 0.25 uM", "result": 44, "unit": "%"},
      {"measurement": "inhibition at 0.5 µM", "setting": "HL-23 C type virus [6]; HL2/3, 120 h, 0.50 uM", "result": 44, "unit": "%"},
      {"measurement": "inhibition at 1 µM", "setting": "HL-23 C type virus [6]; HL2/3, 120 h, 1.00 uM", "result": 76, "unit": "%"},
      {"measurement": "inhibition at 2 µM", "setting": "HL-23 C type virus [6]; HL2/3, 120 h, 2.00 uM", "result": "~96", "unit": "%"},
      {"measurement": "inhibition at 4 µM", "setting": "HL-23 C type virus [6]; HL2/3, 120 h, 4.00 uM", "result": 99, "unit": "%"},
      {"measurement": "Inhibition of replication of poliovirus", "setting": "poliovirus", "result": "fail to inhibit"},
      {"measurement": "Phosphorylation", "setting": "adenosine kinase; listed as 3-Deaza-Ari", "result": "not phosphorylated"},
      {"measurement": "Phosphorylation", "setting": "adenosine kinase; [11]", "result": "not subject to deamination or phosphorylation"},
      {"measurement": "Irreversible inhibition of the enzyme", "setting": "[1]", "result": "negligible or very little irreversible inhibition"},
      {"measurement": "Ki", "setting": "[1]; read-out: Ki, AdoHcy hydrolase", "result": 3000, "unit": "nM"},
      {"measurement": "Ki", "setting": "[1]; [10]", "result": 3000, "unit": "nM"},
      {"measurement": "activity at 0.5 µM", "setting": "in vitro", "result": 120, "unit": "%"},
      {"measurement": "activity at 1 µM", "setting": "in vitro", "result": 144, "unit": "%"},
      {"measurement": "activity at 2 µM", "setting": "in vitro", "result": 111, "unit": "%"},
      {"measurement": "activity at 4 µM", "setting": "in vitro", "result": 111, "unit": "%"},
      {"measurement": "inhibition at 10 µM", "setting": "herpes simplex type I; 10 uM", "result": 60, "unit": "%"},
      {"measurement": "inhibition at 20 µM", "setting": "herpes simplex type I; 20 uM", "result": 97, "unit": "%"},
      {"measurement": "inhibition at 30 µM", "setting": "herpes simplex type I; 30 uM", "result": "> 99", "unit": "%"},
      {"measurement": "inhibition at 40 µM", "setting": "herpes simplex type I; 40 uM", "result": 99.3, "unit": "%"},
      {"measurement": "inhibition at 50 µM", "setting": "herpes simplex type I; 50 uM", "result": 99.3, "unit": "%"},
      {"measurement": "inhibition at 60 µM", "setting": "herpes simplex type I; 60 uM", "result": 100, "unit": "%"},
      {"measurement": "inhibition at 70 µM", "setting": "herpes simplex type I; 70 uM", "result": 100, "unit": "%"},
      {"measurement": "cytotoxicity", "setting": "[7]", "result": "without any cytotoxicity"},
      {"measurement": "activity at 72 h, 0.25 µM", "setting": "[8]; 0.25 uM", "result": 100, "unit": "%"},
      {"measurement": "activity at 72 h, 0.5 µM", "setting": "[8]; 0.50 uM", "result": 88, "unit": "%"},
      {"measurement": "activity at 72 h, 1 µM", "setting": "[8]; 1.00 uM", "result": 75, "unit": "%"},
      {"measurement": "activity at 120 h, 0.25 µM", "setting": "[9]; 0.25 uM", "result": 100, "unit": "%"},
      {"measurement": "activity at 120 h, 0.5 µM", "setting": "[9]; 0.50 uM", "result": 96, "unit": "%"},
      {"measurement": "activity at 120 h, 1 µM", "setting": "[9]; 1.00 uM", "result": 81, "unit": "%"},
      {"measurement": "activity at 120 h, 2 µM", "setting": "[9]; 2.00 uM", "result": 71, "unit": "%"},
      {"measurement": "activity at 120 h, 4 µM", "setting": "[9]; 4.00 uM", "result": 53, "unit": "%"}
    ]}
  ]
}
